These results are taken from patent US4542153A, “Methods for changing calcium metabolism within the cells of a mammal” (The Ohio State University Research Foundation, priority 1983, dated 1985).

One data set has as its system arrhythmia in mammals. The settings on record: in vivo.
The subject of data set [1] is thoracic aorta strips contracted with norepinephrine. The experiment in a line: Vasodilator activity: norepinephrine-contracted aortic strips. Format: cell-based, male Sprague-Dawley rats. The source says: (§1) Pr-MDI, bu-MDI, Q-bu-MDI and the compounds of Formulae IIIA, IIIB and IVA having the two R1 groups together forming a methylene group, each R3 a methyl group and R2 an n-propyl group or n-butyl group (the compounds of Formula III are hereinafter abbreviated as sat-pr-MDI and sat-bu-MDI respectively, reference being made where necessary to the cis isomer of Formula III A or the trans isomer of Formula III B while the compounds of Formula IV are similarly referred to as cis sat-Q-pr-MDI and cis sat-Q-bu-MDI) were tested for vasodilator activity by the method of R. F. Furchgott and S. Bhadrakom, J. P. Pharmacol. Ex. Ther., 108, 129-143 (1953).
(§2) The vasodilator activity tests were conducted on male Sprague-Dawley rats, obtained from Harlan Industries, Inc., Cumberland, Indiana. The rats, weight 250-300 g., were sacrified by cervical dislocation and a 2.5 cm. segment of the thoracic aorta was removed and rinshed in physiological buffer. Each aortic segment was cleaned of connective tissue and cut spirally two yield to strips, each 3 by 15 mm. Each strip was mounted isometrically under a tension of 1 g in a 10 ml. tissue bath thermostatically maintained at 37° C. and containing a normal physiological solution aerated with a 95% oxygen/5% carbon dioxide mixture. Forces generated by the strip were monitored using a Grass FT03 isometric transducer coupled to a Grass module 7D polygraph recorder, both the transducer and the recorder being obtained from Grass Instrument Co., of Quincy, Mass.
(§3) After the aortic tissue had been allowed to equilibriate for 1-1.5 hours in the normal physiologic solution, tissue contraction was induced by introducing either 10^-7 M norepinephrine or 40mM potassium chloride buffer to the tissue bath.
(§4) To avoid interference by loss of tension due to time dependent tissue fatigue, separate preliminary experiments were performed to determine the degree of tissue relaxation due to such fatigue and the value of the control tension generated by norepinephrine or potassium chloride prior to the addition of the test compounds was adjusted whenever the duration of the experiment was such that fatigue could be expected to cause more than a 6% loss of tension. […] All concentrations mentioned hereinafter represent the final concentration of the test compound after dilution in the tissue bath.
(§5) The figures of concentration against percent response data obtained from each aortic tissue were transformed to its appropriate probit value and IC50 values were then estimated using linear regression analysis. The normal physiological solution contained 6.9 g/l of sodium chloride, 0.35 g/l of potassium chloride, 0.11 g/l of magnesium chloride hexahydrate, 0.138 g/l of sodium dihydrogen phosphate, 2.1 g/l of sodium bicarbonate, 0.01 g/l of EDTA, 0.368 g/l of calcium chloride dihydrate and 2.0 g/l of dextrose. The high potassium buffers were obtained by substituting potassium chloride for sodium chloride on an equimolar basis to maintain tonicity.

Another data set relates to mice. The experiment in a line: Toxicity Tests (intraperitoneal LD50). Format: in vivo. The conditions noted are these: i.p., table: mean values and 95% confidence limits.
The subject of data set [2] is thoracic aorta strips contracted with potassium chloride. As to the kind of experiment: Vasodilator activity: potassium chloride-contracted aortic strips. The settings on record: rat aorta contracted with 40 mM potassium chloride; read-out: IC50 (mean and range of SEM) KCl. Format: cell-based, male Sprague-Dawley rats.
Text: as §1, §2, §3, §4, §5

A further data set relates to isolated left atria. As to the kind of experiment: Effects on isolated guinea pig atria: electrically driven left atria. Format: cell-based. The source says: The effects of pr-MDI, bu-MDI and Q-bu-MDI on the mechanical and electrical behavior of isolated guinea pig atria were investigated by the method of H. Nawrath, J. Pharmacol. Exp. Ther., 16, 176-182 (1980). The compounds were investigated over the concentration range of 10^-8 to 3×10^-4 M.
English short-haired guinea pigs, supplied by Carr Animal Supply, of Powell, Ohio, weighing 300-600 g. were killed by a blow on the head and both atria of the animal were quickly dissected out and suspended in a water-jacketed organ bath containing Krebs-Henseleit solution through which a 95% oxygen/5% carbon dioxide mixture was bubbled at 32° C. The solution contained 6.92 g/l of sodium chloride, 0.35 g/l of potassium chloride, 0.29 g/l of magnesium […] heptahydrate, 0.3 g/l of calcium chloride dihydrate, 0.16 g/l of potassium dihydrogen phosphate, 2.1 g/l of sodium bicarbonate and 2.1 g/l of dextrose. The contractile force generated by the isolated artria was recorded isometrically under a 500 mg. preload using a Narco Biosystems force transducer connected to a physiograph DMP-4B recorder, both the transducer and the recorder being obtained from E & M Instrument Co. of Houston, Texas.
The isolated left atria were electrically driven by square wave impulses of 3 milliseconds duration at a frequency of 3 Hz. and a voltage of twice the threshold voltage, delivered by a Grass S9 stimulator obtained from Grass Instrument Co., of Quincy, Massachusetts. Two platinum electrodes were used for the stimulation, the anode being in direct contact with the atrial tissue while the cathode had the form of a ring suspended 2.5 centimeters above the anode. Before redetermination of the threshold voltage and generation of a predrug (control) frequency-force profile over the range of 1-5 Hz., an equilibriation time of one hour was allowed. The system was then re-equilibriated at 3 Hz. and twice the threshold voltage as before, then one cumulative dose-response curve of contractile force for one test compound was obtained, followed immediately by redetermination of the threshold voltage and the generation of a post-drug frequency-force profile.
A paired Student's t-test was used to compare predrug and postdrug threshold voltages for each left atrial preparations as well as to compare developed tension at each frequency in the profile of each left atrial preparation. P values of less than 0.05 were considered statistically significant.

For data set [3], the system named is chloroform anoxia arrhythmia in mice. As to the kind of experiment: Chloroform Anoxia Assay (chloroform-induced ventricular fibrillation). The format is in vivo, Female Swiss albino mice. The procedure: The same four compounds were tested for their ability to protect mice from chloroform anoxia by the classical chloroform inhalation procedure described in Lawson J. W.: Antiarrhythmic activity of some isoquinoline derivatives determined by a rapid screening procedure in the mouse, J. Pharmacol. Exp. Ther. 160: 22-31, (1968). In this method, chloroform inhalation leading to respiratory arrest produces ventricular fibrillation. Female Swiss albino mice procured from Laboratory Supply Company, Indianapolis, Indiana, weighing 16-22 g, were pretreated intraperitoneally with the compound under test dissolved in a 5% dextrose solution 10 minutes before exposure to chloroform in a closed container containing chloroform-saturated cotton. The mice were removed from the chloroform atmosphere immediately after respiratory arrest and the electrocardiograph lead II monitored. The ED 50 and 95% confidence limits calculated for the anti-arrhythmic agents by the standard method of Litchfield and Wilcoxon.

Entries after “also recorded” stand apart in the source; their conditions may differ.

`CCCCC1=Cc2cc3c(cc2C1[N+](C)(C)C)OCO3.[I-]` (centres unmarked) [Q-bu-MDI, 2-Butyl-5,6-methylenedioxyindene-1-trimethylammonium iodide]: the “effectiveness relative to tertiary analog (bu-MDI), average over tests” value in the data set on arrhythmia in mammals is listed as “about four”. Further, in data set [1] (norepinephrine- or KCl-treated tissue), the “relaxation of the aortic tissue” value is “relaxed the aortic tissue”. Moreover, the “comparative vasodilator activity, norepinephrine-treated tissue” value in data set [1] (norepinephrine-treated aortic tissue) was “less active in vitro than their tertiary analogs”. The IC50 in data set [1] (rat aorta contracted with 10^-7 M norepinephrine, read-out: IC50 (mean and range of SEM) Norepinephrine) is 128 µM. Moreover, the LD50 in the data set with mice was found to be 65 mg/kg. For the same compound, in data set [2], the IC50 is 169 µM. Also, in the data set with isolated left atria (3×10^-4 M), the “effect on frequency-force profile/relation of the stimulated left atrium” value is on record as “no significant effect”, the “effect on the contractile force of left atrium at the highest concentration” value is “partially reversed” and the “effect on threshold voltage required to drive the atria” value is listed as “no significant effect upon the threshold voltage”. In addition, the “dose-dependent decrease in the contractile force of the electrically stimulated left atrium” value in the data set on isolated left atria (10^-4 M, 100 µM) is recorded as no more than 20%. Moreover, in the data set on isolated left atria (10^-8 to 3×10^-4 M), the “effect on contractile force of the electrically stimulated left atrium” value was “very modest; also recorded: much less than the other two compounds”; the “overall effect on mechanical and electrical behavior of atria” value is reported as “much smaller than that of bu-MDI or pr-MDI”. In the data set with isolated left atria (maximum concentration 3×10^-4 M), the “persistent effects on frequency-force relation and threshold voltage” value was “did not produce any persistent effects”. In addition, the “Therapeutic Index (LD50/ED50)” value in data set [3] (ED50 from chloroform anoxia, LD50 i.p.) came to 6.2. In data set [3] (i.p., 10 min before chloroform, table: mean values and 95% confidence limits, n = 40), the ED50 was determined as 10.5 mg/kg. Moreover, the “ED50 compared with quinidine (statistical test)” value in data set [3] (i.p., p<<0.05) is listed as “significantly smaller than that of quinidine”. For the same compound, the “Antiarrhythmic Potency” value in data set [3] (quinidine = 1.00, chloroform anoxia) was determined as 6.38.
